Source: publication PMC5896373 (Molecular Pharmacology, 2018)
Numbering of substitutions follows the chain as printed.

Tests used:
[1] = target: T1, chimeric P2X7/1 receptor 164–168 (Homo sapiens, UniProt Q99572, A166G/I21V/M24R/N16P/N25R/Q22R/R20V/S165F/S23N/T19I/V164I/Y26L); experiment: Two-electrode voltage clamp of ATP-evoked currents in Xenopus oocytes; format: cell-based; details: chimera 164–168; for IC50: inhibition of EC90 ATP response
T1 construct: expressed in transfected cells; host or cells: Xenopus laevis oocytes (cRNA injection)
T1 sequence (Q99572 1-595 N16P/T19I/R20V/I21V/Q22R/S23N/M24R/N25R/Y26L/V164I/S165F/A166G): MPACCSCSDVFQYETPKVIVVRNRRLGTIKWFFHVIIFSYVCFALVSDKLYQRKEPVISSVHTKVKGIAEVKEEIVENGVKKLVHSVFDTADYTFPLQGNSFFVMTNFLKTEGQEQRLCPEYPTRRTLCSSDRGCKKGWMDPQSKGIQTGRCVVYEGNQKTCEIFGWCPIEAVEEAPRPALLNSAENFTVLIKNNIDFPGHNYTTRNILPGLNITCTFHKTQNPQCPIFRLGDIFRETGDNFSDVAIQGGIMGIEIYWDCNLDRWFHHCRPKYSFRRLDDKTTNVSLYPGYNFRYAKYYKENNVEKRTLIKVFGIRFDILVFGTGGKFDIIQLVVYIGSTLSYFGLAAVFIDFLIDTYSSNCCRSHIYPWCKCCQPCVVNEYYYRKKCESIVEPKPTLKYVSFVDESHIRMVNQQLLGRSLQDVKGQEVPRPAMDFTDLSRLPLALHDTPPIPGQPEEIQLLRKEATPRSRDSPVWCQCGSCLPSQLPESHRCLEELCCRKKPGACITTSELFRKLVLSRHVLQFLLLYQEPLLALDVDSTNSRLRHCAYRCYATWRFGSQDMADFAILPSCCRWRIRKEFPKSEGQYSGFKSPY
Protocol: (§1) Additional point mutants were made using the QuikChange mutagenesis kit (Stratagene California, La Jolla, CA). The production of the correct mutations and absence of coding errors was determined by DNA sequencing (Automated ABI Sequencing Service, University of Leicester, UK). cRNA was generated for the mutants and 50 nl (50 ng) was injected into manually defoliculated stage V Xenopus laevis oocytes using an Inject+Matic microinjector (J.A. Gabay, Inject+Matic, Geneva, Switzerland). Injected oocytes were stored at 16°C in ND96 buffer [in millimolar concentrations, NaCl 96, KCl 2, CaCl2 1.8, MgCl2 1, sodium pyruvate 5, and HEPES 5 (pH 7.6) supplemented with 50 μg/ml gentamycin and 50 μg/ml tetracycline]. Three to seven days postinjection two-electrode voltage clamp recordings were made from oocytes bathed in divalent-free ND96 buffer (in millimolar concentrations, NaCl 96, KCl 2, sodium pyruvate 5, HEPES 5, and 0.1 flufenamic acid, pH 7.6). Oocytes were voltage clamped at a holding potential of −60 mV with a GeneClamp500B amplifier (Molecular Devices).
(§2) Inhibition by the antagonists was expressed as the percentage of the peak current amplitude of an EC90 concentration of ATP recorded before the application of antagonist (ATP gave reproducible responses to ATP in the absence of antagonist). Inhibition curves were fitted with the Hill equation (variable slope) using GraphPad Prism 6 (GraphPad Software, San Diego, CA). […] Individual concentration-response curves were generated for individual experiments, and statistical analysis was carried out on the data generated. When shown in figures, the inhibition curves are fitted to the mean normalized data. […] Data are shown as mean ± S.E.M. In all cases n ≥ 3 for all data points.

[2] = target: T2, chimeric P2X7/1 receptor 170–177 (Homo sapiens, UniProt Q99572, A172V/A176I/E174D/E175D/I170V/I21V/M24R/N16P/N25R/Q22R/R20V/S23N/T19I/V173D/Y26L); experiment: as above; format: cell-based
T2 construct: expressed in transfected cells; host or cells: Xenopus laevis oocytes (cRNA injection)
T2 sequence (Q99572 1-595 N16P/T19I/R20V/I21V/Q22R/S23N/M24R/N25R/Y26L/I170V/A172V/V173D/E174D/E175D/A176I): T1 sequence (Q99572 1-595 N16P/T19I/R20V/I21V/Q22R/S23N/M24R/N25R/Y26L/V164I/S165F/A166G) with I164V, F165S, G166A, I170V, A172V, V173D, E174D, E175D, A176I
Protocol: as §1
(§3) Inhibition by the antagonists was expressed as the percentage of the peak current amplitude of an EC90 concentration of ATP recorded before the application of antagonist (ATP gave reproducible responses to ATP in the absence of antagonist). Inhibition curves were fitted with the Hill equation (variable slope) using GraphPad Prism 6 (GraphPad Software, San Diego, CA). […] Individual concentration-response curves were generated for individual experiments, and statistical analysis was carried out on the data generated. […] Data are shown as mean ± S.E.M. In all cases n ≥ 3 for all data points.

[3] = target: T3, P2X7R point mutant T94V (Homo sapiens, UniProt Q99572, I21V/M24R/N16P/N25R/Q22R/R20V/S23N/T19I/T94V/Y26L); experiment: as above; format: cell-based; details: EC90 ATP, mean ± S.E.M.
T3 construct: expressed in transfected cells; host or cells: Xenopus laevis oocytes (cRNA injection)
Protocol: as §1
(§4) Inhibition by the antagonists was expressed as the percentage of the peak current amplitude of an EC90 concentration of ATP recorded before the application of antagonist (ATP gave reproducible responses to ATP in the absence of antagonist). […]

[4] = target: T4, P2X7R point mutant Q116A (Homo sapiens, UniProt Q99572, I21V/M24R/N16P/N25R/Q116A/Q22R/R20V/S23N/T19I/Y26L); experiment: as above; format: cell-based; details: EC90 ATP, mean ± S.E.M.
T4 construct: expressed in transfected cells; host or cells: Xenopus laevis oocytes (cRNA injection)
Protocol: (§5) Injected oocytes were stored at 16°C in ND96 buffer [in millimolar concentrations, NaCl 96, KCl 2, CaCl2 1.8, MgCl2 1, sodium pyruvate 5, and HEPES 5 (pH 7.6) supplemented with 50 μg/ml gentamycin and 50 μg/ml tetracycline]. Three to seven days postinjection two-electrode voltage clamp recordings were made from oocytes bathed in divalent-free ND96 buffer (in millimolar concentrations, NaCl 96, KCl 2, sodium pyruvate 5, HEPES 5, and 0.1 flufenamic acid, pH 7.6). Oocytes were voltage clamped at a holding potential of −60 mV with a GeneClamp500B amplifier (Molecular Devices).
as §3

[5] = target: T5, P2X7R point mutant F88A (Homo sapiens, UniProt Q99572, F88A/I21V/M24R/N16P/N25R/Q22R/R20V/S23N/T19I/Y26L); experiment: as above; format: cell-based; details: EC90 ATP, mean ± S.E.M.
T5 construct: expressed in transfected cells; host or cells: Xenopus laevis oocytes (cRNA injection)
Protocol: as §1, §4

[6] = target: T6, P2X7R point mutant Y93A (Homo sapiens, UniProt Q99572, I21V/M24R/N16P/N25R/Q22R/R20V/S23N/T19I/Y26L/Y93A); experiment: as above; format: cell-based; details: EC90 ATP, mean ± S.E.M.
T6 construct: expressed in transfected cells; host or cells: Xenopus laevis oocytes (cRNA injection)
Protocol: as §5, §3

[7] = target: T7, P2X7R point mutant V312A (Homo sapiens, UniProt Q99572, I21V/M24R/N16P/N25R/Q22R/R20V/S23N/T19I/V312A/Y26L); experiment: cell-based
T7 construct: expressed in transfected cells; host or cells: Xenopus laevis oocytes (cRNA injection)
Protocol: as §5, §3

[8] = target: T8, P2X7R point mutant Y298A (Homo sapiens, UniProt Q99572, I21V/M24R/N16P/N25R/Q22R/R20V/S23N/T19I/Y26L/Y298A); experiment: cell-based
T8 construct: expressed in transfected cells; host or cells: Xenopus laevis oocytes (cRNA injection)
Protocol: as §5, §2

[9] = target: T9, P2X7R point mutant F95A (Homo sapiens, UniProt Q99572, F95A/I21V/M24R/N16P/N25R/Q22R/R20V/S23N/T19I/Y26L); experiment: cell-based
T9 construct: expressed in transfected cells; host or cells: Xenopus laevis oocytes (cRNA injection)
Protocol: as §5, §3

[10] = target: T10, chimeric P2X7/1 receptor 122–128 (Homo sapiens, UniProt Q99572, DEL124-124/I21V/L128I/M24R/N16P/N25R/Q22R/R125E/R126G/R20V/S23N/T127G/T19I/Y122H/Y26L); experiment: Two-electrode voltage clamp of ATP-evoked currents in Xenopus oocytes; format: cell-based
T10 construct: expressed in transfected cells; host or cells: Xenopus laevis oocytes (cRNA injection)
T10 sequence (Q99572 with tags, fused parts or gaps N16P/T19I/R20V/I21V/Q22R/S23N/M24R/N25R/Y26L/Y122H/DEL124-124/R125E/R126G/T127G/L128I): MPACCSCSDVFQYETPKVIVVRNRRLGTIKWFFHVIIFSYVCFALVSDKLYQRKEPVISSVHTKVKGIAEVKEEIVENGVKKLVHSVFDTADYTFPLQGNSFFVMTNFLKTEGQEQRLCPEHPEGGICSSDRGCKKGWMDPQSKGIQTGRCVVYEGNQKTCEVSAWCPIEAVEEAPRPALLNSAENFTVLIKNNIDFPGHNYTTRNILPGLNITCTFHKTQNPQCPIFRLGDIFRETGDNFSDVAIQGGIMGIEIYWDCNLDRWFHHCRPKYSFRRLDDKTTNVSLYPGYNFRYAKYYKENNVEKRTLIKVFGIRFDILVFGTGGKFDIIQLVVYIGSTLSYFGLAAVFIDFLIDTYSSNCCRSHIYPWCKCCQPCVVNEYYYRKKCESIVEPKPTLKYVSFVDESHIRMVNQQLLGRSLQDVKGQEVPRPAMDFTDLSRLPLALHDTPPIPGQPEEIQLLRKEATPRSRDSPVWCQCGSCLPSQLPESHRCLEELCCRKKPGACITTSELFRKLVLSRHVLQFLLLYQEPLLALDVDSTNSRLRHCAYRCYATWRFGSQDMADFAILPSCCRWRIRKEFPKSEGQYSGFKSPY
Protocol: as §1, §3

T8 sequence (Q99572 whole entry N16P/T19I/R20V/I21V/Q22R/S23N/M24R/N25R/Y26L/Y298A): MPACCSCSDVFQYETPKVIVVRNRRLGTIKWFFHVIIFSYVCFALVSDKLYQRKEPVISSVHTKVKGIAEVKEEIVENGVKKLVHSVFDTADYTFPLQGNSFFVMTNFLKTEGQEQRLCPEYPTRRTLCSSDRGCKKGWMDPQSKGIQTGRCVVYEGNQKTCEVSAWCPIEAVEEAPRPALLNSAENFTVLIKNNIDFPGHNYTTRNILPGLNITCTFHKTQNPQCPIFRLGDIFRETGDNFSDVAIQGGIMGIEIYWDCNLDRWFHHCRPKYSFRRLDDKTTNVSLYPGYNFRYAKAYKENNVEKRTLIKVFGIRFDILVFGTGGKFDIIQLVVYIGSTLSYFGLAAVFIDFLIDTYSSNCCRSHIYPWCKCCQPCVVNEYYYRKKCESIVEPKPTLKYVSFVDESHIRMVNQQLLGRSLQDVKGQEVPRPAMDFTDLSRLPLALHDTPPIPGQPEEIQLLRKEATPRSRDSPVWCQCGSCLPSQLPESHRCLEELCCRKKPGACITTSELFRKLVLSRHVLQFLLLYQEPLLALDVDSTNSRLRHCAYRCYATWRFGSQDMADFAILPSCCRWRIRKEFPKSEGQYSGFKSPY
T7 sequence (Q99572 whole entry N16P/T19I/R20V/I21V/Q22R/S23N/M24R/N25R/Y26L/V312A): as the sequence (Q99572 whole entry N16P/T19I/R20V/I21V/Q22R/S23N/M24R/N25R/Y26L/Y298A) above, with A298Y, V312A counted along it
T3 sequence (Q99572 whole entry N16P/T19I/R20V/I21V/Q22R/S23N/M24R/N25R/Y26L/T94V): as the sequence (Q99572 whole entry N16P/T19I/R20V/I21V/Q22R/S23N/M24R/N25R/Y26L/Y298A) above, with T94V, A298Y counted along it
T9 sequence (Q99572 whole entry N16P/T19I/R20V/I21V/Q22R/S23N/M24R/N25R/Y26L/F95A): as the sequence (Q99572 whole entry N16P/T19I/R20V/I21V/Q22R/S23N/M24R/N25R/Y26L/Y298A) above, with F95A, A298Y counted along it
T6 sequence (Q99572 whole entry N16P/T19I/R20V/I21V/Q22R/S23N/M24R/N25R/Y26L/Y93A): as the sequence (Q99572 whole entry N16P/T19I/R20V/I21V/Q22R/S23N/M24R/N25R/Y26L/Y298A) above, with Y93A, A298Y counted along it
T4 sequence (Q99572 whole entry N16P/T19I/R20V/I21V/Q22R/S23N/M24R/N25R/Y26L/Q116A): as the sequence (Q99572 whole entry N16P/T19I/R20V/I21V/Q22R/S23N/M24R/N25R/Y26L/Y298A) above, with Q116A, A298Y counted along it
T5 sequence (Q99572 whole entry N16P/T19I/R20V/I21V/Q22R/S23N/M24R/N25R/Y26L/F88A): as the sequence (Q99572 whole entry N16P/T19I/R20V/I21V/Q22R/S23N/M24R/N25R/Y26L/Y298A) above, with F88A, A298Y counted along it

Row | Compound | IC50 [1] | IC50 [2] | IC50 [3] | IC50 [4] | IC50 [5] | IC50 [6] | IC50 [7] | IC50 [8] | IC50 [9] | IC50 [10] | fold decrease in antagonist sensitivity relative to P2X7-2Nβ [1] | effect on antagonist potency relative to P2X7-2Nβ ([2]; chimera 170–177) | effect on antagonist potency relative to P2X7-2Nβ ([10]; chimera 122–128)
1 | Cl.Clc1cccc(-c2nnnn2Cc2cccnc2)c1Cl.O [A438079, 3-(5-(2,3-dichlorophenyl)-1H-tetrazol-1-yl)methyl pyridine hydrochloride hydrate] | 10 µM | 0.631 µM | > 100 µM | 1.26 µM | > 100 µM | 3.98 µM | 5.01 µM | 6.31 µM | > 100 µM | 0.794 µM | – | – | –
2 | COc1ccc(CC(=O)NC(N=C(NC#N)Nc2cccc3ncccc23)C(C)(C)C)cc1OC (centres unmarked) [A740003, N-[1-[[(cyanoamino)(5-quinolinylamino)methylene]amino]-2,2-dimethylpropyl]-3,4-dimethoxybenzeneacetamide] | 0.398 µM | 0.0631 µM | 0.398 µM | 0.316 µM | 5.01 µM | 0.1 µM | 0.398 µM | 2 µM | 1 µM | 0.1 µM | ~5 fold | no effect | no effect
